Publication PMC6706161, “A surface plasmon resonance-based method for monitoring interactions between G protein-coupled receptors and interacting proteins” (Journal of Biological Methods, 2016)
No end group written: not given here.

Biological target: T1, S100B (Bos taurus, UniProt P02638)
T1 construct: S100B, purified from bovine brain; purchased Merck Millipore 559290; host or cells: bovine brain (tissue-purified)
T1 sequence (P02638 2-92 limits assumed): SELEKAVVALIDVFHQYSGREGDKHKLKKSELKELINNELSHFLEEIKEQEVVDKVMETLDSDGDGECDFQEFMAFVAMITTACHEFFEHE
Assay: SPR (Biacore 3000) steady-state binding of S100B to immobilized peptide h5-HT7_IC3
Details: 95% CI [3.93, 6.71], peptide amine-coupled to CM5 chip (about 1200 RU), mock-immobilized reference surface, analyte S100B purified from bovine brain, 0.38 to 12 µM (two experiments) and 1.25 to 40 µM (third), duplicates, running buffer 10 mM HEPES, 150 mM NaCl, 4 mM CaCl2, 0.005% Tween-20, pH 7.5, 25 °C, one-site binding model, three experiments, read-out: Kd (dissociation constant, affinity)
Excerpt: • Custom peptides (> 95% pure) can be obtained from a number of commercial sources. In our hands, peptides from Selleck Chemicals (Houston, TX) have worked well. • S100B, purified from bovine brain (Cat. # 559290; Merck Millipore, Darmstadt, Germany) • Sensor Chip CM5 (single: Cat. # BR-1003-99; pack of three chips: Cat. # BR-1000-12; GE Healthcare) • Plastic Vials, Ø 7 mm; pack of 1000 vials (Cat. # BR-1002-12; GE Healthcare) • Rubber Caps, type 3; pack of 600 caps (Cat. # BR-1005-02; GE Healthcare) • Immobilization buffers: 10 mM sodium acetate, pH 4.0 (Cat. # BR-1003-49) and pH 4.5 (Cat. # BR-1003-50; GE Healthcare); 1 × 50 ml each • HBS-EP (Cat. # BR100188, 6 x 200 ml; GE Healthcare) • NaOH (Cat. # S8045; Sigma-Aldrich, Stockholm, Sweden) • DMSO (Cat. # D2650; Sigma-Aldrich) • Amine Coupling Kit (contains EDC, NHS and 1.0 M ethanolamine-HCl pH 8.5; Cat. # BR100050; GE Healthcare) • HEPES (Cat. # H3375; Sigma-Aldrich) • NaCl (Cat. # S7653; Sigma-Aldrich) • CaCl2 · 2H2O (Cat. # C8106; Sigma-Aldrich) • Tween-20 (Cat. # P1379; Sigma-Aldrich) • EDTA disodium salt (Cat. # E5134; Sigma-Aldrich) • Syringe filters, 0.2 µm pore size (Cat. # 83.1826.001; Sarstedt, Helsingborg, Sweden) • Bottle top filtration unit, 0.45 µm pore size (Cat. # 83.1823.100; Sarstedt)
Running buffer with Ca2+: 10 mM HEPES, 150 mM NaCl, 4 mM CaCl2, 0.005% Tween-20; pH 7.5. Store at 4 °C between experiments. […]

Kd: 5.32 µM
Sequence: KFPGFPRVEPDSVIALNGIV [h5-HT7_IC3]
